What was measured:
[1] = target: T1, recombinant human CB1 receptors (Homo sapiens, UniProt P21554); assay: Binding to CB1 receptors; details: [^3H]-SR-141716A 1 nM; membranes from HEK293 cells expressing recombinant hCB1; Ki calculated from IC50 by Cheng-Prusoff
T1 construct: expressed in transfected cells; host or cells: HEK293 cells (membranes)
Procedure: The binding of compounds of Formula I to recombinant human CB1 receptors was determined in vitro by standard methods, with reference to the procedure described by Rinaldi-Carmona et al. (Rinaldi-Camona, M., Pialot, F., Congy, C., Redon, E., Barth, F., Bachy, A., Breliere, J. C., Soubre, P., LeFur, G., Life Sci. 1996, 58(15), 1239-1247). Membranes were prepared from HEK293 cells expressing recombinant hCB1 receptors. Binding assays are performed in a total volume of 250 μL, containing [^3H]—SR-141716A (1 nM final concentration), membranes and test compound. Non-specific binding is determined using CP55,940 (10 μM). Serial dilutions are performed starting from test compounds as 10 mM solutions in DMSO. Compounds are tested over the concentration range 10^−10 M to 10^−5 M. Ki values are calculated from IC50 values using the Cheng-Prusoff equation.

[2] = tested on: male food-deprived Lister-hooded rats; assay: Regulation of feeding behaviour (food consumption); format: in vivo; details: p.o.; acute administration; food consumption after 18-hour food withdrawal
Procedure: The in vivo activity of compounds of formula (I) was assayed for ability to regulate feeding behaviour by measuring food consumption in male food-deprived Lister-hooded rats as follows.
Test compounds are assessed following acute administration.
The anorectic drug sibutramine, or the reference CB1 receptor antagonist, SR141716A, normally serves as a positive control. The route of drug administration, drug volume and injection-test-interval are dependent upon the compounds used. The injection-test-interval is the time between dosing and food re-presentation. Typically, animals are fasted such that at the time of food re-presentation food has been withdrawn for an 18-hour period. Food consumption is assayed at pre-determined time points (typically 1, 2 and 4 hours after administration). Food intake data are subjected to one-way analysis of variance (ANOVA) with drug as a between-subjects factor. […] All statistical analyses were performed using Statistica Software, Version 6.0 (Statsoft Inc.) and Microsoft Excel 7.0 (Microsoft Corp.).

[3] = tested on: male C57B1/6 mice; assay: Blockade of Δ^9-THC induced hypolocomotion in mice; format: in vivo; details: p.o.; antagonism of reduction in locomotor behaviour induced by 3 mg/kg i.p. Δ^9-THC
Procedure: The in vivo activity of compounds of formula (I) was assayed for ability to antagonise the reduction in locomotor behaviour induced by acute systemic administration of Δ^9-THC in male C57B1/6 mice. The procedure was as follows.
Test compounds are assessed following acute oral or intraperitoneal administration at a dose of 30 mg/kg.
The route of test compound administration, drug volume and injection-test-interval are dependent upon the compounds used. 10 min before testing, a 3 mg/kg dose Δ^9-THC (or vehicle) is administered to mice by the i.p. route. […] The light beams are arranged on a 7 by 4 matrix on a metal grid. 16 grids are connected in series and Perspex boxes, 20 (width)×40 (length)×20 (height) cm, with a flat perforated, Perspex lid are placed in each grid. Mice are placed singly in Perspex boxes and the recording of activity in all 16 boxes starts simultaneously. The mice are left undisturbed to explore the novel activity monitor boxes for 15 minutes while beam breaks are recorded.
Locomotor activity data are subjected to one-way analysis of variance (ANOVA) with drug treatment as a between-subjects factor. […] Significant differences between the vehicle/Δ^9-THC group and Test compound/Δ^9-THC groups are assessed by Newman-Keuls test. All statistical analyses were performed using Statistica Software, Version 6.0 (Statsoft Inc.) and Microsoft Excel 7.0 (Microsoft Corp.).

T1 sequence (P21554 whole entry): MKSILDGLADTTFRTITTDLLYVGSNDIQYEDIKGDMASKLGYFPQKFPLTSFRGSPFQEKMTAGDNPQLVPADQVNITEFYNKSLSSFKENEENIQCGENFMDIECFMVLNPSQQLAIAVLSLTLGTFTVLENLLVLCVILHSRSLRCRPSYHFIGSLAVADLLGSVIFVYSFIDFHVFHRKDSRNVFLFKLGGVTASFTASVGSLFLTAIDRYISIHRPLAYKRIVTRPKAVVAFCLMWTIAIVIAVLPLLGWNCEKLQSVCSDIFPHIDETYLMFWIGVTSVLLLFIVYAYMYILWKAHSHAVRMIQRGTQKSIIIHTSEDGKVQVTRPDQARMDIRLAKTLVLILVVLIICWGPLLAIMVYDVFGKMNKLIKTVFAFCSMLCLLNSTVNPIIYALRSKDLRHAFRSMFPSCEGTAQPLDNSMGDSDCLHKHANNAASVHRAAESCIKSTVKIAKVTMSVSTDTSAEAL

SMILES	Ki [1] [nM]	M.E.D (mg/kg), route [2]	Active dose (mg/kg), route [3]
CC(C)(C)NC(=O)N1CC(OC(c2ccc(Br)cc2F)c2ccccc2C(F)(F)F)C1 (centres unmarked) [Example 94, 3-[2-(trifluoromethyl)-2′-fluoro-4′-bromobenzhydryloxy]-N-(tert-butyl)azetidine-1-carboxamide]	1.3	10, p.o. mg/kg	30, p.o. mg/kg
O=C(NC12CC3CC(CC(C3)C1)C2)N1CC(OC(c2ccc(Cl)cc2)c2ccc(Cl)cc2)C1 [Example 30, 3-(4,4′-dichlorobenzhydryloxy)-N-(1-adamantyl)azetidine-1-carboxamide]	19	–	–
CC(C)(C)NC(=O)N1CC(OC(c2ccc(S(C)(=O)=O)cc2)c2ccccc2C(F)(F)F)C1 (single isomer, unassigned) [Example 140, 3-[(S*)-2-(trifluoromethyl)-4′-(methylsulphonyl)benzhydryloxy]-N-(tert-butyl)azetidine-1-carboxamide]	27	–	–
CC(C)(C)NC(=O)N1CC(OC(c2ccc(Cl)cc2)c2ccc(Cl)cc2)C1 [Example 28, 3-(4,4′-dichlorobenzhydryloxy)-N-(tert-butyl)azetidine-1-carboxamide]	80	–	–
CC(C)(C)NC(=O)N1CC(OC(c2ccc(Cl)cc2)c2ccccc2Cl)C1 (centres unmarked) [Example 4, 3-(2,4′-dichlorobenzhydryloxy)-N-(tert-butyl)azetidine-1-carboxamide]	4.5	30, p.o. mg/kg	30, p.o. mg/kg

Continued, in another order:

Ki [1] [nM]	SMILES	M.E.D (mg/kg), route [2]	Active dose (mg/kg), route [3]
0.6	CC(C)(C)NC(=O)N1CC(OC(c2ccc(Cl)cc2)c2ccccc2C(F)(F)F)C1 (single isomer, unassigned) [Example 139, 3-[(R*)-2-(trifluoromethyl)-4′-chlorobenzhydryloxy]-N-(tert-butyl)-azetidine-1-carboxamide]	1, p.o. mg/kg	–
4.7	CC(C)(C)NC(=O)N1CC(OC(c2ccc(Cl)cc2)c2ccc(Cl)cc2Cl)C1 (centres unmarked) [Example 1, 3-(2,4,4′-trichlorobenzhydryloxy)-N-(tert-butyl)azetidine-1-carboxamide]	30, p.o. mg/kg	30, p.o. mg/kg
2.3	CC(C)(C)NC(=O)N1CC(OC(c2ccc(Cl)cc2)c2ccccc2C(F)(F)F)C1 (racemic) [Example 81, 3-[2-(trifluoromethyl)-4′-chlorobenzhydryloxy]-N-(tert-butyl)azetidine-1-carboxamide]	3, p.o. mg/kg	30, p.o. mg/kg
